Data taken from article PMC4774911, “Biochemical Screening of Five Protein Kinases from Plasmodium falciparum against 14,000 Cell-Active Compounds” (PLoS ONE, 2016).
Values joined by “and” are separate entries in the source; they are usually repeats but may differ in a detail not shown here. Equal entries are not always repeated.

Legend:
Experiment in all cases: biochemical
TP53RK = target: T1, TP53RK (Homo sapiens, UniProt Q96S44)
T1 sequence (Q96S44 1-253): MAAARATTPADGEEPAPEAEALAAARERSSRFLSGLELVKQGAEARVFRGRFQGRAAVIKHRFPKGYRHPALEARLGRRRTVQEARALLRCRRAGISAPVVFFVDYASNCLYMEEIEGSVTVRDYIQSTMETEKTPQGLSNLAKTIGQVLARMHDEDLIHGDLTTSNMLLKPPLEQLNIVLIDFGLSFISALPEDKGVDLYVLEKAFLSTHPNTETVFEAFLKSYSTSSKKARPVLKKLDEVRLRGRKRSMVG

PLK4 = target: T2, PLK4 (Homo sapiens, UniProt O00444)
T2 sequence (O00444 1-970): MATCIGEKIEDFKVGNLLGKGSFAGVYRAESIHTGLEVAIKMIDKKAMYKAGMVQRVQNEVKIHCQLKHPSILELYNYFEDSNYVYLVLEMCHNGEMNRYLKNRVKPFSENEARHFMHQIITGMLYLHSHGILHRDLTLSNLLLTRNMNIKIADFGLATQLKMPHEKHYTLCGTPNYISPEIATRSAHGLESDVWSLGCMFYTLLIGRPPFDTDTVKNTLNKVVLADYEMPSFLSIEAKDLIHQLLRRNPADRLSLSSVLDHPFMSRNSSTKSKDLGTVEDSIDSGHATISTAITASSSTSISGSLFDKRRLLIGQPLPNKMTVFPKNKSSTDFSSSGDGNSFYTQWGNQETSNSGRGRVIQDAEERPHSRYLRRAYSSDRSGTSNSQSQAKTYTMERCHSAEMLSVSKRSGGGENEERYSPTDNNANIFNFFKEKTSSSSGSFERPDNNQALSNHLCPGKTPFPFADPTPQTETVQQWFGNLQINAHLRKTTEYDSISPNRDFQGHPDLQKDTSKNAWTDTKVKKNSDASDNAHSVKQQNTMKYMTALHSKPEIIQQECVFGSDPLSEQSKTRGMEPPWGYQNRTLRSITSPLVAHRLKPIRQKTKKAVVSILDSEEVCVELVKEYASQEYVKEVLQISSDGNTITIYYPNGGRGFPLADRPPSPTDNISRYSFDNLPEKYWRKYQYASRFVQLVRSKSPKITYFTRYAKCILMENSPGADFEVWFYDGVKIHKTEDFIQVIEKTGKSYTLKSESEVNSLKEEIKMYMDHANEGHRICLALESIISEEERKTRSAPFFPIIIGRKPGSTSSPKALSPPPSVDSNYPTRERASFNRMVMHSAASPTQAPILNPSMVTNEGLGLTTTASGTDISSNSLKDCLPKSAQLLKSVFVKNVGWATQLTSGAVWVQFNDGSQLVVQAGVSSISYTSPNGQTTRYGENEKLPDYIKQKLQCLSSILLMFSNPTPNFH

CDK5 = CDK5 (Homo sapiens, UniProt Q00535)
CSNK2A2 = CSNK2A2 (Homo sapiens, UniProt P19784)
PCTK2 = PCTK2 (Homo sapiens, UniProt Q00537)
WEE1 = WEE1 (Homo sapiens, UniProt P30291)
STK38 = STK38 (Homo sapiens, UniProt Q15208)
ULK3 = target: T3, ULK3 (Homo sapiens, UniProt Q6PHR2)
T3 sequence (Q6PHR2 1-472): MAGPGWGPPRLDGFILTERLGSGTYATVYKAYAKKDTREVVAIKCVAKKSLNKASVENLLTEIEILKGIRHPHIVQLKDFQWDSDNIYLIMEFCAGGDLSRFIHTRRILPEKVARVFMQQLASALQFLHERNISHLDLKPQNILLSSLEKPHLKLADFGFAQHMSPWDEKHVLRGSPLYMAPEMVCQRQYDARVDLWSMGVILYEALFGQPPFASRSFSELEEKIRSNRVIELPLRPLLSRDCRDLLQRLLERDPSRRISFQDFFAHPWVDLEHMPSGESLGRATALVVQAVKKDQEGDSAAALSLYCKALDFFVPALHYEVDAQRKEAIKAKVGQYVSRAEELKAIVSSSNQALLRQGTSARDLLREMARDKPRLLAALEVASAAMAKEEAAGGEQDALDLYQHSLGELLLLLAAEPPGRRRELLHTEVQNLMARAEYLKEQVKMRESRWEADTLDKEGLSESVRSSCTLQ

CAMK2G = CAMK2G (Homo sapiens, UniProt Q13555)
JAK1 = JAK1 (Homo sapiens, UniProt P23458)
CAMK2D = CAMK2D (Homo sapiens, UniProt Q13557)
MARK2 = MARK2 (Homo sapiens, UniProt Q7KZI7)
CSK = CSK (Homo sapiens, UniProt P41240)
ABL2 = ABL2 (Homo sapiens, UniProt P42684)
Sequence of ABL2 (P42684 whole entry): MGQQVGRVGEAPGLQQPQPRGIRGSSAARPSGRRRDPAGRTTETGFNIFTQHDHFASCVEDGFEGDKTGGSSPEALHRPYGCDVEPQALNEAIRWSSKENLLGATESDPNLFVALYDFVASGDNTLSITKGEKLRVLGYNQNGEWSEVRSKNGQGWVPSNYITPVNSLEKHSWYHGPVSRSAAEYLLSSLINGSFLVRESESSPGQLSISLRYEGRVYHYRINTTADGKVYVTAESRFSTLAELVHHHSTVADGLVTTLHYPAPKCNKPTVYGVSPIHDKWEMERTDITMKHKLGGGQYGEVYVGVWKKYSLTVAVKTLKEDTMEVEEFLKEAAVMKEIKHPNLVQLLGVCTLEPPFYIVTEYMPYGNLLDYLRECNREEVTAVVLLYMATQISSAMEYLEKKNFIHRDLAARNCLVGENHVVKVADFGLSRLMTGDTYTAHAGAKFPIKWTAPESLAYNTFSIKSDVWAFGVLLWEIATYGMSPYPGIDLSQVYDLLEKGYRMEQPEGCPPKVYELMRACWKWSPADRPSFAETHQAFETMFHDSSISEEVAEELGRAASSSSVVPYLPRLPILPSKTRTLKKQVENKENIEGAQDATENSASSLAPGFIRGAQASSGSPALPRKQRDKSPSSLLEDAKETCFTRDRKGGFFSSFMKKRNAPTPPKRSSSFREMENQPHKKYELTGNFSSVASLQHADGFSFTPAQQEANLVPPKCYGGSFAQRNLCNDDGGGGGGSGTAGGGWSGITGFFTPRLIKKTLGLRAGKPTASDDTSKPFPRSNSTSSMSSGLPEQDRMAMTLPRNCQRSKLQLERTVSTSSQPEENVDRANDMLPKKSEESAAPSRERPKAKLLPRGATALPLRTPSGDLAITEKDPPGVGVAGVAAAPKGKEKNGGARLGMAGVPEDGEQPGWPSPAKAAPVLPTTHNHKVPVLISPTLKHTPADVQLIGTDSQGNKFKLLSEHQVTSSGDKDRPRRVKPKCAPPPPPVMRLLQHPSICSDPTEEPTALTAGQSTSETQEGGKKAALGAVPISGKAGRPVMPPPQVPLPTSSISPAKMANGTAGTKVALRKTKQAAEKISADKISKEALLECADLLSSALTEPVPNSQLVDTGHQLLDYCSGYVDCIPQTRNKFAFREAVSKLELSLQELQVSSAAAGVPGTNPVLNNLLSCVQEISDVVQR

Sequence of PCTK2 (Q00537 whole entry): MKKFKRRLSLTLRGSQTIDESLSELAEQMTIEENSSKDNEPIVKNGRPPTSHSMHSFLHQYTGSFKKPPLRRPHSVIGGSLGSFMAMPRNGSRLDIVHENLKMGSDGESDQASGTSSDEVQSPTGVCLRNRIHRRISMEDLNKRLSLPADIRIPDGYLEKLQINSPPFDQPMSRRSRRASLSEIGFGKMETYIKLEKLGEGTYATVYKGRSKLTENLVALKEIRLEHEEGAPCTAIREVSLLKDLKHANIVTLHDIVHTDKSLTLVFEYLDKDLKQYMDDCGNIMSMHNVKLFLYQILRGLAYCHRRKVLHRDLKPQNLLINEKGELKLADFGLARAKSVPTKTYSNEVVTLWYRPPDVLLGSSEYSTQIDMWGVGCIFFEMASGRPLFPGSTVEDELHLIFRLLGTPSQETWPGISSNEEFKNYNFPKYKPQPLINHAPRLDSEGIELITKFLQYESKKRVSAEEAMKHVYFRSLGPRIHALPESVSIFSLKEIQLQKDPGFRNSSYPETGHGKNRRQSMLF
Sequence of JAK1 (P23458 whole entry): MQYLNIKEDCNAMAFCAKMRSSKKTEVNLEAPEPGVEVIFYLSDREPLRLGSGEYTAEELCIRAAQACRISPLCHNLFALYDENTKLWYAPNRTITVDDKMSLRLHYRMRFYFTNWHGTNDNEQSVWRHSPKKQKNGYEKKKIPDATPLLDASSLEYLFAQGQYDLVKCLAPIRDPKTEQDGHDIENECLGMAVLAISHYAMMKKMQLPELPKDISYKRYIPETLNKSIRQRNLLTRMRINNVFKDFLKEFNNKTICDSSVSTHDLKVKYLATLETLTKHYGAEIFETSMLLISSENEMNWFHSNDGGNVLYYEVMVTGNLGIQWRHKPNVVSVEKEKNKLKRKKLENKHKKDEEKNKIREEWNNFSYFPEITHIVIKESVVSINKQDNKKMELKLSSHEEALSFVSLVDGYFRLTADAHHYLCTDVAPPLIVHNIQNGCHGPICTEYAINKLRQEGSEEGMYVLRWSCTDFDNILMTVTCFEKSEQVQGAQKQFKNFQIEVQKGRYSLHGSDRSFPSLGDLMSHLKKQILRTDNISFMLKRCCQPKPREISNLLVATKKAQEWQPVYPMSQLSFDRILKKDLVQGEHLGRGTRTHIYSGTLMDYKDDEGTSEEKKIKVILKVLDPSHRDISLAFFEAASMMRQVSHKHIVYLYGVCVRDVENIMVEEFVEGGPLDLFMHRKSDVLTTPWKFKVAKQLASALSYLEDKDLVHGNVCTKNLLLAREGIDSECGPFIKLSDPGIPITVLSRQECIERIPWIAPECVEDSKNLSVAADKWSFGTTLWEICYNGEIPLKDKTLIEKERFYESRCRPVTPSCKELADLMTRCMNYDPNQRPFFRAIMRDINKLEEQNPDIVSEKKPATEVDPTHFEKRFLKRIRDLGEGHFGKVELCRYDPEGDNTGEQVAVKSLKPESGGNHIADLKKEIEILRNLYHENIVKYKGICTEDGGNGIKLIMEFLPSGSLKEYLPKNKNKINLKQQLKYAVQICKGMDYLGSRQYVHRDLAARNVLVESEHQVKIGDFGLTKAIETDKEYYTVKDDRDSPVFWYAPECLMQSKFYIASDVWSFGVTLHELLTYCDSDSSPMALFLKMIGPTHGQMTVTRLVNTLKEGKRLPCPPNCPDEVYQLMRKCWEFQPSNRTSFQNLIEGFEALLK
Sequence of CSK (P41240 whole entry): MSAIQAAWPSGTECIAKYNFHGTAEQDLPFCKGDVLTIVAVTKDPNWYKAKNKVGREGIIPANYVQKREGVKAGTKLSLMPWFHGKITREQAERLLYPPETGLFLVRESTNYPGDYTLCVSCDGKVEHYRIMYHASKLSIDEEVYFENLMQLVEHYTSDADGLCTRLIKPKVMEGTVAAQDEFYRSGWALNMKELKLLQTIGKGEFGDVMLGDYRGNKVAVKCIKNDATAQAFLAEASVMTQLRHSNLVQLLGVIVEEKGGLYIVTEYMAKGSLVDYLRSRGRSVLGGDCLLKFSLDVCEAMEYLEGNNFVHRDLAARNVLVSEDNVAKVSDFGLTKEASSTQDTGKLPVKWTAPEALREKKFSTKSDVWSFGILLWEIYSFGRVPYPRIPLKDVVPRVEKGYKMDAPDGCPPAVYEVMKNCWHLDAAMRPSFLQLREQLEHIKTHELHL
Sequence of CSNK2A2 (P19784 whole entry): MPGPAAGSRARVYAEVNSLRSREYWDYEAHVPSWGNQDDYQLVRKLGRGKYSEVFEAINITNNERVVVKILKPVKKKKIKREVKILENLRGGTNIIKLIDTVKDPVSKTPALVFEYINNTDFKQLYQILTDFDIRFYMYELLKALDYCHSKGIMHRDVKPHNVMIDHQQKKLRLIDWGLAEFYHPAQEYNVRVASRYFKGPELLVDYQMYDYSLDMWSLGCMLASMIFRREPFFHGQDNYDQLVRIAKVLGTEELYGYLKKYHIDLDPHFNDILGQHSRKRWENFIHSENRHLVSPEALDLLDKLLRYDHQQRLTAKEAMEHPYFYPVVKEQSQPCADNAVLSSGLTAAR
Sequence of CAMK2G (Q13555 whole entry): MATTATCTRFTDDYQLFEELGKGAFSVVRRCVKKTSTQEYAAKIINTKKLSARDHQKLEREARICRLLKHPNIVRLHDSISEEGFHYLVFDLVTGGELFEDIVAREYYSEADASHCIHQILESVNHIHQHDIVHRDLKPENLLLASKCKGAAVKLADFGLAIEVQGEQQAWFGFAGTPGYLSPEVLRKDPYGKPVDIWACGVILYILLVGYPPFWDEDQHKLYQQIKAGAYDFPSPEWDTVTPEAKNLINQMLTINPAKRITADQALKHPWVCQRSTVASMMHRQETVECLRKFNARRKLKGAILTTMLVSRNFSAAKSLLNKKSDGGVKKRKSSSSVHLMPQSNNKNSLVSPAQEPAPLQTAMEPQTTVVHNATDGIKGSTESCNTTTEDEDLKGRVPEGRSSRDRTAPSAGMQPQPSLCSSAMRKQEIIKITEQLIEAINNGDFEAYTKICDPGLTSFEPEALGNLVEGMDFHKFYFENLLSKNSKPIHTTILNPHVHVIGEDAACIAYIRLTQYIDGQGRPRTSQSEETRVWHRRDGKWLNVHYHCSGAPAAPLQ
Sequence of CAMK2D (Q13557 whole entry): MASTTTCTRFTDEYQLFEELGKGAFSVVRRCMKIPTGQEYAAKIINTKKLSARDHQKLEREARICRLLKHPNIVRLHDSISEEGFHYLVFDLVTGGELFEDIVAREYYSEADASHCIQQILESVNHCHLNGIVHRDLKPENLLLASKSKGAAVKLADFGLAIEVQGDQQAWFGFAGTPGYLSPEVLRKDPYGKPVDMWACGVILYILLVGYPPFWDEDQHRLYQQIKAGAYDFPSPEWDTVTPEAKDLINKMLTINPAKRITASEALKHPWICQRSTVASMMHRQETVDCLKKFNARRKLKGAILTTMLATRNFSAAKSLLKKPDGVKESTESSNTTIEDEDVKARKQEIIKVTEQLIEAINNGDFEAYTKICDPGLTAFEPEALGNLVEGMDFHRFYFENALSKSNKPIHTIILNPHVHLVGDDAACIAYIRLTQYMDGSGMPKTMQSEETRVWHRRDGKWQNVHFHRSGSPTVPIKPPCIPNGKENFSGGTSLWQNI
Sequence of CDK5 (Q00535 whole entry): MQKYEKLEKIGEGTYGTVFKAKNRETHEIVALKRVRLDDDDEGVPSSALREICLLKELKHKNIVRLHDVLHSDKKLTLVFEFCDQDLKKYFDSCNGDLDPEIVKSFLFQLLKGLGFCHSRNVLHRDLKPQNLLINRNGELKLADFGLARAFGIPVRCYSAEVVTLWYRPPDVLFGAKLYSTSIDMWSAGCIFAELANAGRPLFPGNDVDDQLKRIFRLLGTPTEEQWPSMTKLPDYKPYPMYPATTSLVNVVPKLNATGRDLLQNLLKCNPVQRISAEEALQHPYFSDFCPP

| SMILES | IC50 (TP53RK) | IC50 (PLK4) | IC50 (CDK5) | IC50 (CSNK2A2) | IC50 (PCTK2) | IC50 (WEE1) | IC50 (STK38) | IC50 (ULK3) | IC50 (CAMK2G) | IC50 (JAK1) | IC50 (CAMK2D) | IC50 (MARK2) | IC50 (CSK) | IC50 (ABL2) |
| --- | --- | --- | --- | --- | --- | --- | --- | --- | --- | --- | --- | --- | --- | --- |
| CN(C)CC(O)COc1ccc(Nc2ncc([N+](=O)[O-])c(Nc3ccccc3O)n2)cc1.O=C(O)C(F)(F)F (stereo not drawn) [TCMDC-141399] | > 20 µM | > 20 µM | > 20 µM | 0.056 µM and 0.045 µM | 1.5 µM and 1.4 µM | 0.58 µM | > 20 µM | > 20 µM | > 20 µM | 1.1 µM and 1.4 µM | > 20 µM | 6.4 µM | > 20 µM | 4.2 µM |
| Cl.NCC1(c2nc(-c3ccc(Cl)c(O)c3)c(-c3ccncc3)[nH]2)CCCCC1 [TCMDC-141154] | > 20 µM | > 20 µM | > 20 µM | > 20 µM | > 20 µM | > 20 µM | > 20 µM | > 20 µM | > 20 µM | > 20 µM | > 20 µM | > 20 µM | 4.4 µM | 0.49 µM and 0.4 µM |
| CN1CCN(c2ccc(Nc3ncc(C#N)c(Nc4ccccc4C(N)=O)n3)cc2)CC1.Cl [TCMDC-134116] | 4 µM | 0.21 µM and 0.27 µM | 0.067 µM and 0.11 µM | ≤ 0.032 µM | 0.076 µM and 0.11 µM | 0.048 µM and 0.047 µM | 0.35 µM and 0.29 µM | 0.06 µM and 0.095 µM | 1.5 µM and 1.3 µM | 0.053 µM and 0.079 µM | 1.9 µM and 0.96 µM | 0.22 µM and 0.21 µM | 4.1 µM | 0.2 µM and 0.16 µM |
